A short description of series [1]: Assay of solubility (37° C., 24 hours stirring, HPLC). It is filed as physicochemical. On the procedure:
Assay method: The crystal form C of the compound of formula (I) was weighed and added to a 4 mL glass vial, and then 2 mL of solvent was added. The mixture was mixed well and a magnet bar was added to the above suspension. The suspension was stirred on a heater with magnetic stirring (37° C., protected from light). After 24 hours of stirring, a sample was taken. The resulting sample solution was quickly centrifuged. The supernatant was diluted to the appropriate multiple, and the concentration was determined by HPLC (unit: mg/mL).

In series [2] the test system is Ba/F3-TEL-FLT3-D835Y subcutaneous allograft tumor. Nature of the series: Pharmacodynamics assay of Ba/F3-TEL-FLT3-D835Y cells in mice with subcutaneous allograft tumor. It is filed as in vivo. To be noted: for Average tumor volume Day 0: Day 0, before dosing; for % Inhibition rate / Average tumor volume Day 15: Oral, Once a day. The method, then: The efficacy of the assay compounds in the BALB/c nude mouse model of subcutaneous allografts of Ba/F3-TEL-FLT3-D835Y cells was evaluated in vivo.
Ba/F3-TEL-FLT3-D835Y cell line was cultured in 1640 medium supplemented with 10% fetal bovine serum and 1% double antibody at 37° C. and 5% CO2, and passaged twice a week. […].
When the cells in the logarithmic growth phase reached the required number for the assay, the cells were harvested, and centrifuged at 1000 rpm for 5 min. The supernatant was removed. The cells were resuspended in culture medium, and counted using a cell counter. […]. After mixing well, the suspension was placed on ice and aspirated with a 1 ml sterile syringe. 0.2 ml of cell suspension was inoculated subcutaneously in the right armpit of each mouse. That is, each mouse was inoculated with 1×10^6 Ba/F3-TEL-FLT3-D835Y cells. After inoculation, the tumor growth was observed day by day. The mice were randomly grouped according to tumor volume when the average tumor volume reached about 175.77 mm^3. Mice were dosed according to their body weight (10 μL/g).
After the start of dosing, the body weight and tumor size of the mice were measured twice a week. Tumor volume was calculated according to the formula: Tumor volume (mm^3)=½×(a×b^2) (where a represents the long diameter and b represents the short diameter).

The nature of series [3]: In vivo pharmacokinetic assay in rats. Also on record: species or system SD male rats. The method, then: SD male rats aged 7 to 10 weeks were selected. The rats were fasted for at least 12 hours before the administration, and resumed feeding 4 hours after the administration. The rats had free access to water throughout the assay period.
(§1) On the day of the assay, the animals in the intravenous group were administrated the corresponding compound through a single injection in the tail vein at an administration volume of 5 mL/kg; the oral group were administrated the corresponding compound through a single intragastric gavage at an administration volume of 10 mL/kg. The animals were weighed before administration, and the administration volume was calculated based on the body weight. The time for collecting samples was: 0.083 (the injection group), 0.25, 0.5, 1, 2, 4, 6, 8, 24 h. About 200 μL of whole blood was collected from the jugular vein at each time point to prepare plasma for concentration determination by high-performance liquid chromatography-tandem mass spectrometry (LC-MS/MS). All animals were euthanized by CO2 anesthesia after collecting the PK samples at the last time point. The plasma concentrations were processed by non-compartmental model of WinNonlin™ Version 6.3 (Pharsight, Mountain View, Calif.) pharmacokinetic software, and the pharmacokinetic parameters were calculated by the linear logarithm trapezoidal method.

Series [4] can be described thus: In vivo pharmacokinetic assay in dogs. Also noted: species or system Male Beagle dogs. To be noted: Oral, 30 mg/kg. The method, then: Male Beagle dogs older than 6 months of age were selected. On the day of the assay, the animals were given the corresponding compound by single injection in the cephalic or saphenous vein in a volume of 1 mL/kg for the intravenous group; and by single gavage in a volume of 5 mL/kg for the oral group. The animals were weighed before administration and the dosing volume of the compound was calculated based on their body weight. About 0.5 mL of whole blood was collected from the cephalic or saphenous vein at each time point to prepare plasma for determination of concentrations by high performance liquid chromatography-tandem mass spectrometry (LC-MS/MS). Plasma concentrations were processed using non-compartment model of WinNonlin™ Version 6.3 or above (Pharsight, Mountain View, Calif.) pharmacokinetic software, and pharmacokinetic parameters were calculated using the linear log trapezoidal method.

Series [5] deals with human acute myeloma MOLM-13 cell line subcutaneous xenograft. Briefly: Inhibition of Molm-13 subcutaneous xenograft tumor in vivo. Also noted: species or system NOD/SCID female mice. As to conditions: for Average tumor volume Day 0: Day 0, before dosing; for % Inhibition rate on day 11 / % Inhibition rate on day 15 / Average tumor volume Day 11 / Average tumor volume Day 15: Oral, Once a day. The method, then: The purpose of this assay is to evaluate the pharmacodynamics of the compounds in the NOD/SCID female mice model of human acute myeloma MOLM-13 cell line subcutaneous xenograft.
MOLM-13 cells were cultured in RPMI-1640 medium containing 10% fetal bovine serum. The MOLM-13 cells were collected in the exponential growth phase, and resuspended in PBS to a suitable concentration for subcutaneous tumor inoculation in […].
The assay mice were inoculated with 5×10^6 MOLM-13 cells resuspended in 0.1 ml of PBS (0.1 ml per mouse) subcutaneously on the right back. Tumor growth was regularly observed. When the tumor grew to an average volume of 98 mm^3, the mice were randomly divided into groups and administered according to tumor size and body weight of the mice.
After the start of administration, the body weight and tumor size of the mice were measured three times a week. The formula for calculating the tumor volume is: tumor volume (mm^3)=½×(a×b^2) (where a represents the long diameter and b represents the short diameter).

Series [6] can be described thus: In vivo pharmacokinetic assay in mice. To be noted: male, CD-1, mouse, plasma; for Tmax: read-out: Tmax; for Vd: read-out: Vdss. Also noted: species or system CD-1 male mice. On the procedure: CD-1 male mice aged 7 to 10 weeks were selected. The doses for intravenous and oral administration were 1 mg/kg and 2.5 mg/kg, respectively. The mice were fasted for at least 12 hours before the administration, and resumed feeding 4 hours after the administration. The mice had free access to water throughout the assay period.
as §1, with “4,” for “4, 6,”, “30” for “200”, “saphenous” for “jugular”

Series [7] relates to human biphenotypic B bone marrow mononuclear leukemia cell MV4-11 subcutaneous xenograft tumor. Nature of the series: Inhibition of MV4-11 subcutaneous xenograft tumor in vivo. Also noted: species or system nude mice. The method, then:
In this assay, the anti-tumor effect of the compounds was evaluated using a nude mice model of subcutaneous xenograft tumor of human biphenotypic B bone marrow mononuclear leukemia cell MV4-11.
Human biphenotypic B bone marrow mononuclear leukemia cell MV4-11 was cultured in vitro in suspension with a RPMI1640 medium supplemented with 10% fetal bovine serum, 100 U/mL penicillin and 100 μg/mL streptomycin in a 5% CO2 cell incubator at 37° C. Routine passaging was performed twice a week. Cells in the logarithmic growth phase were collected, counted and then used for inoculation.
0.2 mL (1×10^7) of MV4-11 cells (plus matrigel, with a volume ratio of 1:1) were inoculated subcutaneously on the right back of each mouse. The grouping and dosing were started when the average tumor volume reached about 140-200 mm^3.
The diameter of the tumor was measured with vernier calipers twice a week. The formula for calculating the tumor volume is: V=0.5a×b^2, where a and b represent the long and short diameters of the tumor, respectively.

The mark [8] stands for this setting: Oral administration (2.5 mg/kg).
Where [9] appears, read: male, SD, rat, plasma, Oral, 2.5 mg/kg.
Setting [10] is: male, SD, rat, plasma, iv, Injection, 1 mg/kg.

≈ marks a conversion by molar mass, not a printed value. Some results are limits rather than exact numbers.

Broadly, the Solubility is the concentration that dissolves in the medium under given conditions. Low values mean little dissolved substance, high ones much dissolved substance. Usually Cmax stands for the peak of the concentration-time curve. As a reminder, the Tmax is the time from dosing to the highest level. As for `CCc1nc(C(N)=O)c(Nc2ccc(N3CCC4(CCN(C)CC4)CC3)c(C)c2)nc1NC1CCOCC1`, the Solubility is 0.11 mg/mL (≈ 211 µM) in series [1] (Biological medium FaSSIF, 37° C.); 1.11 mg/mL (≈ 2130 µM) in series [1] (Biological medium FeSSIF, 37° C.); 1.49 mg/mL (≈ 2860 µM) in series [1] (Biological medium SGF, 37° C.); >10 mg/mL in series [1] (Buffer solution pH 1.0, 37° C.); >10 mg/mL in series [1] (Buffer solution pH 3.8, 37° C.); >10 mg/mL in series [1] (Buffer solution pH 4.5, 37° C.). The molecule also had a Solubility in series [1] (Buffer solution pH 5.5, 37° C.) of 0.81 mg/mL (≈ 1550 µM). Besides, the “Average tumor volume Day 0” value worked out at 176 ± 2 mm^3 in series [2] (1 mg/kg group), 177 ± 2 mm^3 in series [2] (3 mg/kg group) and 177 ± 2 mm^3 in series [2] (6 mg/kg group). The “% Inhibition rate” value in series [2] (1 mg/kg) turned out to be 62%; in series [2] (3 mg/kg), 80%; in series [2] (6 mg/kg) it was 103%. Also, the “Average tumor volume Day 15” value in series [2] (1 mg/kg) is reported as 1160 ± 99 mm^3; in series [2] (3 mg/kg) it was 683 ± 45 mm^3; in series [2] (6 mg/kg), 77 ± 13 mm^3. Further, the Cmax in series [3] (Oral, 20 mg/kg) came out at 483 nM; in series [4] it was 527 nM. Moreover, the F% in series [3] (Oral, 20 mg/kg) came out at 93%; in series [4] it was 41.0%. Also, the time of peak concentration (Tmax) was found to be 7.00 h in series [3] (Oral, 20 mg/kg) and 9.00 h in series [4].
On to `CCc1nc(C(N)=O)c(Nc2ccc(N3CCC4(CCN(C)CC4)CC3)c(C)c2)nc1NC1CCOCC1` [Compound of formula (I)], for which the “Average tumor volume Day 0” value in series [5] (15 mg/kg group) was determined as 98.34 mm^3. Moreover, in series [5] (15 mg/kg), the “% Inhibition rate on day 11” value turned out to be 92%, the “% Inhibition rate on day 15” value amounted to 94%, the “Average tumor volume Day 11” value is 156.85 mm^3 and the “Average tumor volume Day 15” value is on record as 223.09 mm^3. The “Average tumor volume Day 0” value in series [5] (50 mg/kg group) turned out to be 98.05 mm^3. Also, in series [5] (50 mg/kg), the “% Inhibition rate on day 11” value is 106%, the “% Inhibition rate on day 15” value came out at 104%, the “Average tumor volume Day 11” value is 53.08 mm^3 and the “Average tumor volume Day 15” value is 0 mm^3.
What is called AUC(0-t) is exposure summed from dosing to a finite time, without extrapolation to infinity. The bioavailability is dose-corrected exposure relative to a reference, in per cent. Lower therefore signals poor availability. What is called half-life is how long it takes for the measured level to halve. High values mean slow loss, low ones fast loss. Usually clearance stands for a measure of how efficiently the substance is removed, as volume per time. As for `CCc1nc(C(N)=O)c(Nc2ccc(N3CCC(N4CCN(C)CC4)CC3)c(OC)c2)nc1NC1CCOCC1` [Compound B, reference compound], in series [2] (3 mg/kg group), the “Average tumor volume Day 0” value came out at 176 ± 2 mm^3. Moreover, in series [2] (3 mg/kg), the “% Inhibition rate” value is reported as 68% and the “Average tumor volume Day 15” value is given as 993 ± 79 mm^3. In series [6] (setting [8]), the AUC(0-t) was 0.501 µM·h, the highest concentration (Cmax) came to 85.3 nM, the bioavailability is 33.1% and the half-life was 335 min. Moreover, in series [6] (setting [8]), the Tmax was determined as 1 h. In series [6] (iv, Injection (1 mg/kg)), the area under the curve AUC(0-t) worked out at 0.605 µM·h, the clearance was 46.7 mL/min/kg, the half-life is 125 min and the Vd is 7.47 L/kg. In series [3] (setting [9]), this molecule registered an AUC(0-t) of 0.361 µM·h, a Cmax of 29.1 nM and a bioavailability of 24.6%. The Tmax in series [3] (male, SD, rat, plasma, Oral, 2.5 mg/kg, read-out: Tmax) worked out at 6 h. In series [3] (setting [10]), the area under the curve AUC(0-t) worked out at 0.587 µM·h, the clearance worked out at 44 mL/min/kg and the half-life was 164 min. Besides, in series [3] (male, SD, rat, plasma, iv, Injection, 1 mg/kg, read-out: Vdss), the Vd was determined as 10.2 L/kg. In addition, the “% Inhibition rate on day 14” value in series [7] (1.5 mg/kg, Oral, Once a day) is 57.7%. The “Average tumor volume Day 14” value in series [7] (1.5 mg/kg, Oral, Once a day, Day 14) was found to be 431 mm^3. The “Average tumor volume Day 0” value in series [7] (Day 0, one value for all groups, before dosing) amounted to 149 mm^3. Also, in series [5] (15 mg/kg group), the “Average tumor volume Day 0” value is given as 98.02 mm^3. In series [5] (15 mg/kg), the “% Inhibition rate on day 11” value was found to be 59%, the “% Inhibition rate on day 15” value is 79%, the “Average tumor volume Day 11” value was 401.07 mm^3 and the “Average tumor volume Day 15” value came to 566.95 mm^3.
In series [6] (setting [8]), `CCc1nc(C(N)=O)c(Nc2ccc(N3CCC4(CCN(C)CC4)CC3)c(OC)c2)nc1NC1CCOCC1` [Compound A] showed an AUC(0-t) of 0.0745 µM·h, a Cmax of 13.4 nM, a bioavailability of 7.39% and a half-life of 454 min. Further, the Tmax in series [6] (setting [8]) worked out at 1 h. In addition, in series [6] (iv, Injection (1 mg/kg)), the AUC(0-t) was determined as 0.403 µM·h, the clearance was determined as 73.4 mL/min/kg, the half-life was 128 min and the Vd was found to be 8.93 L/kg.

Values taken from patent US20230141887A1, “CRYSTAL FORM OF DIAZASPIROPYRAN COMPOUND” (MEDSHINE DISCOVERY INC., priority 2020, published 2023).
